Reference: ChEMBL document CHEMBL1131038, “Derivatives of the triazoloquinazoline adenosine antagonist (CGS 15943) having high potency at the human A2B and A3 receptor subtypes” (J Med Chem, 1998)

Key:
Adenosine receptor A2b [1] = biological target: T1, Adenosine receptor A2b (Homo sapiens, UniProt P29275); assay: Inhibition of 50 uM 5`-(N-ethylcarboxamido)adenosine induced cAMP production in CHO cell line expressing human Adenosine A2B receptor; type: cell-based
T1 sequence (P29275 whole entry): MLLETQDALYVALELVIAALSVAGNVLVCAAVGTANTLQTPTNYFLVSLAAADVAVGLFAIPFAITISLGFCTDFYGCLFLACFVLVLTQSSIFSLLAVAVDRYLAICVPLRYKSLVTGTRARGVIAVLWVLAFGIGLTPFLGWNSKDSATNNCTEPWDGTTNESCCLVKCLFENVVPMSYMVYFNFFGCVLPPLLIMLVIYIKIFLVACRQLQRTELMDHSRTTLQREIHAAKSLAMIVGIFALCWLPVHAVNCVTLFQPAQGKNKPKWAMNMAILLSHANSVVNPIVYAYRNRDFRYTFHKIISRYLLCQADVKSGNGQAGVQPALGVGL

Adenosine receptor A2a = Adenosine receptor A2a (Rattus norvegicus, UniProt P30543); assay: Binding affinity was determined in radioligand binding assay at rat striatal Adenosine A2A receptor vs [3H]-CGS- 21680
Adenosine receptor A1 = biological target: T2, Adenosine receptor A1 (Rattus norvegicus, UniProt P25099)
T2 sequence (P25099 whole entry): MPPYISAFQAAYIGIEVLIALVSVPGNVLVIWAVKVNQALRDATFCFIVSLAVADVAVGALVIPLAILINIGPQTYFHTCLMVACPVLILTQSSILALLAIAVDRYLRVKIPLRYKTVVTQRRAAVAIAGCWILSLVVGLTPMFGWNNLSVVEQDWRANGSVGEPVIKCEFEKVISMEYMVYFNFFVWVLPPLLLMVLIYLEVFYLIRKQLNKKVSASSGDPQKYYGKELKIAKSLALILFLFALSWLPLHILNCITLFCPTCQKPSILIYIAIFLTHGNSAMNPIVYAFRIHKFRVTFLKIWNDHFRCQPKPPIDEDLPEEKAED
Description: Binding affinity was determined in radioligand binding assay at rat brain adenosine A1 receptor vs [3H]R-PIA

[2] = biological target: T3, Adenosine receptor A2b (Homo sapiens) (UniProt P29275); assay: Inhibition at 50 uM on cAMP production induced by 50 uM 5`-(N-ethylcarboxamido)adenosine in CHO cell line transfected with human Adenosine A2B receptor cDNA; type: cell-based
T3 sequence (whole entry): T1 sequence (P29275 whole entry)

[3] = Ratio against rat A2A receptor and Human A3 receptor
[4] = Ratio against rat A1 receptor and Human A3 receptor
Adenosine receptor A2b [5] = biological target: T1, Adenosine receptor A2b; assay: pA2 value at human Adenosine A2B receptor from Schild plots with slopes approaching unity; details: read-out: pA2 (converted)
Adenosine receptor A2b [6] = biological target: T1, Adenosine receptor A2b; assay: Inhibition of 50 uM 5`-(N-ethylcarboxamido)adenosine induced cAMP production in CHO cell line expressing human Adenosine A2B receptor at 50 uM; type: functional, cell-based
Adenosine receptor A3 = biological target: T4, Adenosine receptor A3 (Homo sapiens, UniProt P0DMS8); assay: biochemical
T4 sequence (P0DMS8 whole entry): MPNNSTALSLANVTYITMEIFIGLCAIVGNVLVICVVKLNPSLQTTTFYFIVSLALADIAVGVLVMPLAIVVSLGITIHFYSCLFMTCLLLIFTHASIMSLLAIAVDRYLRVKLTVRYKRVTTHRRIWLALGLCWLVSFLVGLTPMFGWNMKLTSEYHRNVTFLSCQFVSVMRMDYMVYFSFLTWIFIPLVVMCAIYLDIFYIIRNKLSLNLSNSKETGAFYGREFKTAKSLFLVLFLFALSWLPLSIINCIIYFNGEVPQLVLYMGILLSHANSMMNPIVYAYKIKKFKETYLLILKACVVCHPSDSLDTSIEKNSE
Description: Binding affinity at cloned human adenosine A3 receptor expressed in HEK293 cells was determined using [125I]AB-MECA as radioligand

Sequence of Adenosine receptor A2a (P30543 whole entry): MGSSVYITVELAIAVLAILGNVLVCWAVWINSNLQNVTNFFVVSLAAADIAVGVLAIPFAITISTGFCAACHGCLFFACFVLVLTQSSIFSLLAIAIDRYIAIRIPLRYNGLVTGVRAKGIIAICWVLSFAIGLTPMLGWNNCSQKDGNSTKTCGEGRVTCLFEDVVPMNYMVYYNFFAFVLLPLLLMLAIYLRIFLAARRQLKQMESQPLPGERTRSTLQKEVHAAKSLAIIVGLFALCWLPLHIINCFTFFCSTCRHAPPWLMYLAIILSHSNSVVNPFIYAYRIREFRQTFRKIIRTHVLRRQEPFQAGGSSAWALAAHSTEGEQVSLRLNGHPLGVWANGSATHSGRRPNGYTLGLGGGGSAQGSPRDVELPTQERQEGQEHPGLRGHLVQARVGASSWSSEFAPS

| SMILES | IC50 (Adenosine receptor A2b [1]) [nM] | Ki (Adenosine receptor A2a) [nM] | Ki (Adenosine receptor A1) [nM] | inhibition [2] [%] | Selectivity ratio [3] | Selectivity ratio [4] | Kb (Adenosine receptor A2b [5]) [nM] | IC50 (Adenosine receptor A2b [6]) [nM] | Ki (Adenosine receptor A3) [nM] |
| --- | --- | --- | --- | --- | --- | --- | --- | --- | --- |
| NCCCC(=O)Nc1nc2ccc(Cl)cc2c2nc(-c3ccco3)nn12 | 270 | 1.38 | 8.75 | 100 | 0.017 | 0.11 | 10 | – | – |
| O=C(O)CCCC(=O)Nc1nc2ccc(Cl)cc2c2nc(-c3ccco3)nn12 | – | 1.15 | 45 | – | 0.014 | 0.55 | – | 1900 | 81.3 |
